Measurements reported in patent publication US7803832B2, “N-(1-arylpyrazol-4L)sulfonamides and their use as parasiticides” (Pfizer Inc., priority 2004, dated 2010).

The molecules below were run on Ctenocephalides felis (cat flea) (assay: flea membrane feed test). Details: in vitro membrane feed; adult fleas fed 2 hours on citrated dog blood containing compound, stored overnight, percentage of fleas killed; dose responses repeated n=5.
Procedure: The flea membrane feed test is used to measure the biological activities of the compounds claimed. The assay involves in vitro testing against Ctenocephalides felis conducted according to the following general procedure.
Fleas are cultured in vitro using dog blood. 25-30 adult Ctenocephalides felis (cat flea) were collected and placed in a test chamber (50 ml polystyrene tube with fine nylon mesh sealing the end). Citrated dog blood was prepared by adding aqueous sodium citrate solution (10 ml, 20% w/v, 20 g sodium citrate in 100 ml water) to dog blood (250 ml). Test compounds were dissolved in dimethylsulfoxide to give a working stock solution of 4 mg/ml. The stock solution (12.5 μl) was added to citrated dog blood (5 ml) to give an initial test concentration of 10 μg/ml. For testing at 30 μg/ml, working stock solutions of 12 mg/ml were prepared.
Citrated dog blood containing the test compound (5 ml, 10 μg/ml) was placed into a plastic Petri dish lid, which was kept at 37° C. on a heated pad. Parafilm was stretched over the open top to form a tight membrane for the fleas to feed through. The test chamber containing the fleas was placed carefully onto the parafilm membrane and the fleas commenced feeding.
The fleas were allowed to feed for 2 hours and the test chambers were then removed and stored overnight at room temperature.
The fleas were observed and the percentage of fleas killed recorded. Compounds were initially tested at 10 μg/ml, wherefrom relevant dose responses (100, 30, 10, 3, 1, 0.3, 0.1 μg/ml) were conducted and repeated n=5. Data was plotted to generate ED80, ED90 & ED95 values.
For CS(=O)(=O)N(CC#N)c1c(C#N)nn(-c2c(Cl)cc(C(F)(F)F)cc2Cl)c1N [Example 5, N-{5-amino-3-cyano-1-[2,6-dichloro-4-(trifluoromethyl)phenyl]-1H-pyrazol-4-yl}-N-(cyanomethyl)methanesulfonamide], the “Flea feed ED80 results” value was 1 µg/mL.
In the case of CN(c1cn(-c2c(Cl)cc(C(F)(F)F)cc2Cl)nc1C#N)S(=O)(=O)C(F)(F)F [Example 27, N-{3-cyano-1-[2,6-dichloro-4-(trifluoromethyl)phenyl]-1H-pyrazol-4-yl}-1,1,1-trifluoro-N-methyl methanesulfonamide], the “Flea feed ED80 results” value is reported as 0.1 µg/mL.
In the case of CS(=O)(=O)N(c1c(C#N)nn(-c2c(Cl)cc(C(F)(F)F)cc2Cl)c1N)S(=O)(=O)c1ccc(F)cc1F [Example 84, N-{5-amino-3-cyano-1-[2,6-dichloro-4-(trifluoromethyl)phenyl]-1H-pyrazol-4-yl}-2,4-difluoro-N-(methylsulfonyl)benzenesulfonamide], the “Flea feed ED80 results” value is reported as 3 µg/mL.
